What is called Kd is the constant that tells how readily two partners part at equilibrium. Lower therefore signals a tighter complex.

In article PMC6591010 (Molecular cell, 2019) one finds Kd and ATP hydrolysis assay data, which are given here for 1 compound.

One assay deals with Ct Smc4hd–Brn1C (Thermochaetoides thermophila, UniProt G0S2G2, DEL467-1366/Q421L). Briefly: biochemical.
A further assay addresses Sc condensin holocomplex (Saccharomyces cerevisiae, UniProt P38989+Q12267). The settings on record: with or without DNA.

Sequence of Ct Smc4hd–Brn1C (G0S2G2 264-466 Q421L): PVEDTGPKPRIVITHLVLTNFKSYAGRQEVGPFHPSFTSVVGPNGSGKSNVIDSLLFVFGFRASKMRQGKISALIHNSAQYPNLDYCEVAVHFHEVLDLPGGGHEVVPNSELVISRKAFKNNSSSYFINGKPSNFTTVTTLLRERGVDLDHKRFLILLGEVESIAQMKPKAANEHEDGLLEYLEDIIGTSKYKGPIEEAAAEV
Sequence of Ct Smc4hd–Brn1C (G0S2G2 1367-1542, stated change not applied): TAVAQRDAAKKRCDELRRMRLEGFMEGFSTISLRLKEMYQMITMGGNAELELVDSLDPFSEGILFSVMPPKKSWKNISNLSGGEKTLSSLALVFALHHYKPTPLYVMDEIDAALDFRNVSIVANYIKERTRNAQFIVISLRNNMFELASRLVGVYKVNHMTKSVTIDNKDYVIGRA
Sequence of Ct Smc4hd–Brn1C (G0SBJ6 765-898 partner): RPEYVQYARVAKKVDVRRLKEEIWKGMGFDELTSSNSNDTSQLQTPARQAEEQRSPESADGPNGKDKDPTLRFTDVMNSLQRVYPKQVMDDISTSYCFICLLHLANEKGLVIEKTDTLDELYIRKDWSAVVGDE

In turn, `Nc1ncnc2c1ncn2[C@@H]1O[C@H](COP(=O)(O)OP(=O)(O)OP(=O)(O)O)[C@@H](O)[C@H]1O` [ATP] registered a Kd on Ct Smc4hd–Brn1C of 18.4 µM. In addition, at Sc condensin holocomplex, the ATP hydrolysis assay result was “basal and DNA-stimulated ATPase activities of condensin holocomplexes”.
